{"source": "patent US9339034B2", "about": "“Use of thaxtomin for selective control of rice and aquatic based weeds” (MARRONE BIO INNOVATIONS, INC., priority 2009, dated 2016)", "key": {"[1]": {"tested_on": "TPL (transplanted 'M202' Japonica-type rice)", "experiment": "Greenhouse pot study, effect on crop growth, transplanted rice", "format": "in vivo", "settings": "for effect on crop growth (rice): TPL"}, "[2]": {"tested_on": "BYG", "experiment": "Greenhouse pot study, weed control", "format": "in vivo, barnyardgrass"}, "[3]": {"tested_on": "SCM", "experiment": "Greenhouse pot study, weed control", "format": "in vivo, Scirpus mucronatus", "text": "The activity on susceptible and resistant biotypes of Scirpus mucronatus was somewhat weaker (70 to 75%) than that observed for other sedge weeds in this study."}, "[4]": {"tested_on": "SPZ", "experiment": "Greenhouse pot study, weed control", "format": "in vivo, Sphenoclea zeylanica"}, "[5]": {"tested_on": "most of the Echinochloa spp.", "experiment": "Greenhouse pot study, weed control", "format": "in vivo", "settings": "up to the highest rate tested; 1000 g a.i. per hectare", "text": "Moderate suppression (60%) was noted on Echinochloa colonum at 500 g a.i. per hectare."}, "[6]": {"tested_on": "direct-seeded rice", "experiment": "First study, crop safety", "format": "in vivo", "settings": "rates up to 750 g a.i. per hectare"}, "[7]": {"tested_on": "Leptochloa sp", "experiment": "Pot study, spray of pure thaxtomin A solutions, % control", "format": "in vivo, sprangletop: Leptochloa uninervia", "method": "(§1) A pot study was conducted to test the phytotoxicity of thaxtomin A on broadleaved, sedge and grass weeds. Seeds of two most common broadleaf (redstem; Ammannia spp. and common waterplantain; Alisma plantago-aquatica), sedge (smallflower umbrella sedge; Cyperus diiformis) and grass (sprangletop: Leptochloa uninervia) weeds each were planted in a plastic pots filled with heavy clay soil. The less than 1-inch tall plants grown under growth lights (12-h light/12-h dark) at 28° C. were sprayed with pure thaxtomin A solutions containing 0.05, 0.1, 0.2, and 0.4 mg thaxtomin A per mL of solvent (4% ethanol and 0.2% non-ionic surfactant). A solution of 4% ethanol+0.2% non-ionic surfactant without thaxtomin A was used as a control treatment. Same treatments were applied to three-inch tall rice plants grown submerged under growth lights at 28° C. […] All treatments were applied in three replicates. Treated plants were kept at 28° C. under growth lights and observed at three time points—5, 12 and 21 days after treatment—for visual symptoms of phytotoxicity and % control."}, "[8]": {"tested_on": "rice (S102, M104, M206)", "experiment": "Pot study, phytotoxicity on rice plants", "format": "in vivo", "settings": "three rice cultivars (S102, M104, M206); 0.05-0.4 mg/mL; each evaluation time point (5, 12, 21 days)", "method": "as §1"}, "[9]": {"tested_on": "mono and dicotyledonous seedlings", "settings": "cited from earlier work"}}, "data": [{"molecule": "CN1C(=O)[C@](O)(Cc2cccc(O)c2)N(C)C(=O)[C@@H]1Cc1c[nH]c2cccc([N+](=O)[O-])c12", "note": "[thaxtomin A]", "values": [{"measurement": "selectivity on transplanted rice", "setting": "[1]; 1000 g a.i.", "result": "excellent selectivity"}, {"measurement": "effect on crop growth (rice)", "setting": "[1]; 64 g/ha", "result": 0, "unit": "%"}, {"measurement": "effect on crop growth (rice)", "setting": "[1]; 125 g/ha", "result": 0, "unit": "%"}, {"measurement": "effect on crop growth (rice)", "setting": "[1]; 250 g/ha", "result": 0, "unit": "%"}, {"measurement": "effect on crop growth (rice)", "setting": "[1]; 500 g/ha", "result": 0, "unit": "%"}, {"measurement": "effect on crop growth (rice)", "setting": "[1]; 1000 g/ha", "result": 10, "unit": "%"}, {"measurement": "rice selectivity", "setting": "[1]; transplanted 'M202' Japonica-type rice, 500 g a.i. per hectare", "result": "excellent rice selectivity"}, {"measurement": "% control", "setting": "[2]; 64 g/ha", "result": 0, "unit": "%"}, {"measurement": "% control", "setting": "[2]; 125 g/ha", "result": 0, "unit": "%"}, {"measurement": "% control", "setting": "[2]; 250 g/ha", "result": 15, "unit": "%"}, {"measurement": "% control", "setting": "[2]; 500 g/ha", "result": 30, "unit": "%"}, {"measurement": "% control", "setting": "[2]; 1000 g/ha", "result": 40, "unit": "%"}, {"measurement": "% control", "setting": "[3]; 64 g/ha", "result": 0, "unit": "%"}, {"measurement": "% control", "setting": "[3]; 125 g/ha", "result": 30, "unit": "%"}, {"measurement": "% control", "setting": "[3]; 250 g/ha", "result": 30, "unit": "%"}, {"measurement": "% control", "setting": "[3]; 500 g/ha", "result": 70, "unit": "%"}, {"measurement": "% control", "setting": "[3]; 1000 g/ha", "result": 95, "unit": "%"}, {"measurement": "% control", "setting": "[4]; 64 g/ha", "result": 0, "unit": "%"}, {"measurement": "% control", "setting": "[4]; 125 g/ha", "result": 90, "unit": "%"}, {"measurement": "% control", "setting": "[4]; 250 g/ha", "result": 90, "unit": "%"}, {"measurement": "% control", "setting": "[4]; 500 g/ha", "result": 100, "unit": "%"}, {"measurement": "% control", "setting": "[4]; 1000 g/ha", "result": 100, "unit": "%"}, {"measurement": "activity on Echinochloa spp.", "setting": "[5]", "result": "weakness"}, {"measurement": "growth reductions to direct-seeded rice", "setting": "[6]", "result": "only slight growth reductions"}, {"measurement": "% control", "setting": "[7]; 5 DAYS, 0.05 mg/mL in 4% ethanol", "result": 0, "unit": "%"}, {"measurement": "% control", "setting": "[7]; 5 DAYS, 0.1 mg/mL in 4% ethanol", "result": 0, "unit": "%"}, {"measurement": "% control", "setting": "[7]; 5 DAYS, 0.2 mg/mL in 4% ethanol", "result": 0, "unit": "%"}, {"measurement": "% control", "setting": "[7]; 5 DAYS, 0.4 mg/mL in 4% ethanol", "result": 0, "unit": "%"}, {"measurement": "% control", "setting": "[7]; 12 DAYS, 0.05 mg/mL in 4% ethanol", "result": 0, "unit": "a %"}, {"measurement": "% control", "setting": "[7]; 12 DAYS, 0.1 mg/mL in 4% ethanol", "result": 2, "unit": "a %"}, {"measurement": "% control", "setting": "[7]; 12 DAYS, 0.2 mg/mL in 4% ethanol", "result": 10, "unit": "b %"}, {"measurement": "% control", "setting": "[7]; 12 DAYS, 0.4 mg/mL in 4% ethanol", "result": 10, "unit": "b %"}, {"measurement": "% control", "setting": "[7]; 21 DAYS, 0.05 mg/mL in 4% ethanol", "result": 0, "unit": "a %"}, {"measurement": "% control", "setting": "[7]; 21 DAYS, 0.1 mg/mL in 4% ethanol", "result": 3, "unit": "a %"}, {"measurement": "% control", "setting": "[7]; 21 DAYS, 0.2 mg/mL in 4% ethanol", "result": 12, "unit": "a %"}, {"measurement": "% control", "setting": "[7]; 21 DAYS, 0.4 mg/mL in 4% ethanol, listed as Thaxtomin", "result": 17, "unit": "a %"}, {"measurement": "% control", "setting": "[7]; 21 DAYS, 0.4 mg/mL in 4% ethanol, listed as Thaxtomin A", "result": 17, "unit": "%"}, {"measurement": "phytotoxicity in rice cultivars", "setting": "[8]", "result": "no phytotoxicity"}, {"measurement": "concentration causing cell swelling, necrosis and growth inhibition", "setting": "[9]", "result": "less than 1 uM"}]}]}
